{"source": "patent US20100105746A1", "about": "“METHOD FOR TREATING METABOLIC DISEASES” (priority 2008, published 2010)", "key": {"human PPARα": {"target": "T1, human PPARα (Homo sapiens, UniProt Q07869)", "T1 construct": "expressed in transfected cells; host or cells: HepG2", "T1 sequence (Q07869 1-468)": "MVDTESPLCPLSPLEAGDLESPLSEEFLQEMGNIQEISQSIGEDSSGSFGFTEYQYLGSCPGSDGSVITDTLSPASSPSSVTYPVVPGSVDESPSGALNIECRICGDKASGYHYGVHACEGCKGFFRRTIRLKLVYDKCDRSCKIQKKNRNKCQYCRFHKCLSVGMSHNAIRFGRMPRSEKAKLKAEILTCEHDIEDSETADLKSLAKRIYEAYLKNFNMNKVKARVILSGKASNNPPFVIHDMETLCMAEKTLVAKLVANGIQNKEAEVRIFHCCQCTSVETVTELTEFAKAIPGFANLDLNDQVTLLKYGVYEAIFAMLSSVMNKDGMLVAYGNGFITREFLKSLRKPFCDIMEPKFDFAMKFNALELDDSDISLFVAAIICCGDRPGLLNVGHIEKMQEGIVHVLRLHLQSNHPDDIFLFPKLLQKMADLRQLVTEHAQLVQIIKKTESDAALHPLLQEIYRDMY", "assay": "PPARRE-luciferase reporter in HepG2 cells transfected with human PPARα", "type": "cell-based", "details": "retinoic acid 200 nM, read-out: EC50 activation of human PPARα (hPPARα)", "experimental": "For this study, a luciferase reporter plasmid containing 5 copies of a defined genetic regulatory PPARα response element (PPARRE) was utilized to detect romazarit-induced PPARRE activation in presence of a co-activator, retinoic acid. Specifically, HepG2 cells were transfected with expression vectors for either human or rat PPARα and the PPARRE-luciferase reporter plasmid. After 24 hours, the cells were trypsanized and subsequently seeded in 96-well clear-bottom plates at a density of 1.0×10^5 cells/ml."}, "[1]": {"assay": "Terminal fasting serum glucose and lipids in rats with diet-induced obesity (Example 6)", "type": "in vivo, rat", "details": "DIO rats, vs vehicle control", "experimental": "As part of the study described in Example 4, a terminal blood sample (0.5 ml whole blood in EDTA) was collected on day 24, after a 12-18 hour fast. Whole blood was processed to serum, and analyzed for glucose, total cholesterol, HDL cholesterol, free fatty acids and total triglycerides."}, "[2]": {"assay": "Metabolic parameters / indicators of insulin sensitivity in normal rats (Example 9)", "type": "in vivo, rat", "description": "Male Sprague-Dawley rats were provided normal chow ad libitum, both before and during the study period. […] Six rats were assigned to each treatment group (8 to the vehicle control). The study terminated on the day following administration of the seventh dose (day 8), with terminal blood collected for plasma lipid and lipoprotein analyses including LC-MS-based determination of lipid profiles, total and free cholesterol analyses, and lipoprotein cholesterol determinations (VLDL, LDL and HDL).\nAdiponectin is an insulin-sensitizing protein that is abundantly expressed in adipocytes and is secreted into the circulation (see review by Lara-Castro et al. (2007) cited above)."}, "[3]": {"assay": "Multiplex bioanalytics profiling of plasma lipids in drug-dosed rats (Example 1)", "type": "in vivo, rat", "details": "7 days", "experimental": "Multiplex bioanalytics profiling can elucidate novel pharmacological actions of drugs via measurement of hundreds of disease-relevant biomolecules in biofluids collected from drug-dosed animals. Romazarit was evaluated via a full multiplex bioanalytics profiling study.\nIn an initial experiment, two dose groups of six animals per group received either 5 or 50 mg/kg b.i.d., and a further group received vehicle only, as a control. A follow-up experiment was performed to explore dose-response and the selected doses were 15 and 50 mg/kg b.i.d., again plus control.\nIn both experiments, urine was collected from each animal by clean-catch after the final dose on day 7, and cerebrospinal fluid (CSF) and plasma were collected (terminal samples) on day 8. Aliquots of the CSF and plasma samples from each individual were submitted for LC-MS analyses of bioanalytes. Three different separation methods were run, with MS analyses in both positive and negative ion modes, to enable resolution of relative quantification of the bioanalytes. These methods included: • RP-I: LC-MS of polar and non-polar abundant lipids (e.g., individual cholesterol esters, triglycerides, diacylglycerols, phospholipids, lysophospholipids); • RP-II: LC-MS of lower abundance bioanalytes (e.g., eicosanoids & other lipid mediators, fatty acids, oxidized fatty acids, bile acids, conjugated bile acids); • PLR: LC-MS of polar compounds (e.g., catecholamines & serotonin pathway, amino acids, organic acids, sugars)."}, "[4]": {"assay": "Oral glucose tolerance test (OGTT) in rats with diet-induced obesity (Example 5)", "type": "in vivo, rat", "details": "for Glucose concentration maximum / Glucose concentration excursion (baseline to maximum): OGTT day 21, DIO rats; for Time to maximum (glucose concentration): OGTT day 21, dextrose 2 g/kg, DIO rats", "experimental": "As part of the study described in Example 4, an oral glucose tolerance test (OGTT) was performed on day 21 of the dosing period, after a 2-4 hour fast. Dextrose (2 g/kg) was administered by oral gavage. Blood for glucose analysis was collected at 0, 15, 30, 60, 120 and 180 minutes after dextrose administration. At each time point, 0.25 ml whole blood was collected in EDTA, processed to plasma, and analyzed for blood glucose with a low-volume glucose kit."}, "[5]": {"details": "50 mg/kg b.i.d. p.o., second experiment"}}}
{"molecule": "Cc1nc(-c2ccc(Cl)cc2)oc1COC(C)(C)C(=O)O", "note": "[romazarit, 2-[[2-(4-chlorophenyl)-4-methyl-5-oxazolyl]methoxy]-2-methylpropanoic acid]", "values": [{"measurement": "EC50", "setting": "human PPARα", "value": "~200", "unit": "µM"}, {"measurement": "terminal (total) cholesterol levels", "setting": "[1]; day 24, 15 mg/kg once daily", "value": "not statistically significant"}, {"measurement": "terminal HDL levels", "setting": "[1]; day 24, 15 mg/kg once daily", "value": "not statistically significant"}, {"measurement": "terminal fasting levels of triglycerides", "setting": "[1]; day 24, 15 mg/kg once daily", "value": "significant reduction"}, {"measurement": "terminal fasting serum glucose", "setting": "[1]; day 24, 15 mg/kg once daily", "value": "significantly reduced"}, {"measurement": "terminal levels of free fatty acids", "setting": "[1]; day 24, 15 mg/kg once daily", "value": "did not, at any of the tested doses, affect"}, {"measurement": "terminal (total) cholesterol levels", "setting": "[1]; day 24, 50 mg/kg once daily", "value": "significantly reduced"}, {"measurement": "terminal HDL levels", "setting": "[1]; day 24, 50 mg/kg once daily", "value": "significantly reduced"}, {"measurement": "terminal fasting levels of triglycerides", "setting": "[1]; day 24, 50 mg/kg once daily", "value": "significant reduction"}, {"measurement": "terminal fasting serum glucose", "setting": "[1]; day 24, 50 mg/kg once daily", "value": "significantly reduced"}, {"measurement": "terminal levels of free fatty acids", "setting": "[1]; day 24, 50 mg/kg once daily", "value": "did not, at any of the tested doses, affect"}, {"measurement": "terminal (total) cholesterol levels", "setting": "[1]; day 24, 100 mg/kg once daily", "value": "significantly reduced"}, {"measurement": "terminal HDL levels", "setting": "[1]; day 24, 100 mg/kg once daily", "value": "significantly reduced"}, {"measurement": "terminal fasting levels of triglycerides", "setting": "[1]; day 24, 100 mg/kg once daily", "value": "did not achieve statistical significance"}, {"measurement": "terminal fasting serum glucose", "setting": "[1]; day 24, 100 mg/kg once daily", "value": "significantly reduced"}, {"measurement": "terminal levels of free fatty acids", "setting": "[1]; day 24, 100 mg/kg once daily", "value": "did not, at any of the tested doses, affect"}, {"measurement": "glucose in plasma", "setting": "[2]; once daily p.o. 7 days", "value": "appeared to lower"}, {"measurement": "insulin in plasma", "setting": "[2]; once daily p.o. 7 days", "value": "appeared to lower"}, {"measurement": "plasma glucagon", "setting": "[2]; once daily p.o. 7 days", "value": "lowered"}, {"measurement": "plasma adiponectin", "setting": "[2]; once daily p.o. 7 days, 10, 50 and 100 mg/kg", "value": "dose-dependently increased"}, {"measurement": "plasma triglycerides", "setting": "[3]; 5 mg/kg b.i.d. p.o., initial experiment", "value": "also apparent"}, {"measurement": "plasma triglycerides", "setting": "[3]; 15 mg/kg b.i.d. p.o., second experiment", "value": "lowered plasma triglycerides to a degree that was intermediate"}, {"measurement": "plasma triglycerides", "setting": "[3]; 50 mg/kg b.i.d. p.o., initial experiment", "value": "highly pronounced"}, {"measurement": "plasma cholesterol esters", "setting": "[3]; [5]", "value": "generally similar to those seen with the same dose in the initial experiment"}, {"measurement": "plasma triglycerides", "setting": "[3]; [5]", "value": "generally similar to those seen with the same dose in the initial experiment"}, {"measurement": "plasma cholesterol esters", "setting": "[3]; 5 and 50 mg/kg b.i.d. p.o., initial experiment", "value": "increased"}, {"measurement": "Glucose concentration maximum", "setting": "[4]; 15 mg/kg", "value": 230.1, "unit": "mg/dL"}, {"measurement": "Glucose concentration excursion (baseline to maximum)", "setting": "[4]; 50 mg/kg", "value": 61.1, "unit": "mg/dL"}, {"measurement": "Glucose concentration maximum", "setting": "[4]; 50 mg/kg", "value": 203.3, "unit": "mg/dL"}, {"measurement": "Glucose concentration excursion (baseline to maximum)", "setting": "[4]; 100 mg/kg", "value": 42.7, "unit": "mg/dL"}, {"measurement": "Glucose concentration maximum", "setting": "[4]; 100 mg/kg", "value": 185.1, "unit": "mg/dL"}, {"measurement": "Time to maximum (glucose concentration)", "setting": "[4]; 15 mg/kg", "value": 15, "unit": "min"}, {"measurement": "Time to maximum (glucose concentration)", "setting": "[4]; 50 mg/kg", "value": 15, "unit": "min"}, {"measurement": "Time to maximum (glucose concentration)", "setting": "[4]; 100 mg/kg", "value": 60, "unit": "min"}]}
